The subject of test [1] is SEM and RS4;11 cells. Description: Annexin-V-FITC/PI flow cytometry (apoptosis). The following applies: CP 2.5 μM, both cell lines. The format is cell-based, human. As to the method: FIGURE 1 CP uptake and effects on cell cycle and apoptosis induction A) RS4;11, SEM, THP1, Jurkat cell lines and healthy PBMC were incubated with 6.25, 12.5 and 25 μM of CP for 24 h. The intracellular accumulation of CP was detected by GF-AAS analysis. B) SEM and RS4;11 cells were treated with the indicated concentrations of CP for 24 h, cell cycle distribution and Sub-G1 contents were analyzed by flow cytometry after cell staining with PI. The percentages of each phase of the cell cycle (G1, S, G2/M) were calculated on living cells whereas the percentages of cells with hypodiploid DNA content peak (subG1) was referred to cell population characterized by the appearance of subG1 peak. C) SEM and RS4;11 cells were incubated with 2.5 μM CP for the indicated times and analyzed by flow cytometry after double staining with Annexin-V-FITC and PI. Data are represented as mean ± S.E.M. of three independent experiments.
To characterize the mode of cell death induced by CP, we performed a cytofluorimetric analysis using PI and Annexin-V-FITC, which stain DNA and phosphatidylserine residues, respectively. After a time course of 1.5, 3, 6, 12 and 24 h of drug treatment (2.5 μM), SEM and RS4;11 cells were labeled with the two dyes and analyzed by flow cytometry. […]
In general terms: A flow cytometer gives signals particle by particle.

Test [2] concerns Resting healthy PBMC. Description: MTT growth inhibition, 72 h. The format is cell-based, human. Conditions: mean ± SE.

The structures appear in SMILES notation.

Data on one compound can be found in paper PMC4171606, “A novel copper(I) complex induces ER-stress-mediated apoptosis and sensitizes B-acute lymphoblastic leukemia cells to chemotherapeutic agents” (Oncotarget, 2014).

The GI50 is the concentration that inhibits growth by half. `F[P-](F)(F)(F)(F)F.OCP(CO)CO.OCP(CO)CO.OCP(CO)CO.OCP(CO)CO.[Cu+]` [CP, [Cu(thp)4][PF6]]: in test [1], the “onset of significant levels of Annexin-V positive cells” value is on record as not below 6 h. Also, in test [2], it took 22.7 ± 2.9 µM to inhibit growth by half (GI50).
